According to patent US6358698B1 (Acadia Pharmacueticals Inc., priority 1998, dated 2002):
Read-outs that look alike come from different tables or passages of the source. Blank lines part the entries; values can stand above or below the molecule they belong to.

Assays:
5-HT2A receptor = biological target: T1, 5-HT2A receptor (Homo sapiens, UniProt P28223); assay: R-SAT functional assay, constitutively active wild type 5-HT2A receptor in NIH 3T3 cells; assay type: cell-based; conditions: for Negative LOG EC50 (inverse agonism, inhibition of constitutive activity): Table 2, molar negative log EC50, mean of three dose response experiments +/- standard error, 50 ng/well DNA
T1 construct: expressed in transfected cells; host or cells: NIH 3T3 (mouse fibroblast)
T1 sequence (P28223 whole entry): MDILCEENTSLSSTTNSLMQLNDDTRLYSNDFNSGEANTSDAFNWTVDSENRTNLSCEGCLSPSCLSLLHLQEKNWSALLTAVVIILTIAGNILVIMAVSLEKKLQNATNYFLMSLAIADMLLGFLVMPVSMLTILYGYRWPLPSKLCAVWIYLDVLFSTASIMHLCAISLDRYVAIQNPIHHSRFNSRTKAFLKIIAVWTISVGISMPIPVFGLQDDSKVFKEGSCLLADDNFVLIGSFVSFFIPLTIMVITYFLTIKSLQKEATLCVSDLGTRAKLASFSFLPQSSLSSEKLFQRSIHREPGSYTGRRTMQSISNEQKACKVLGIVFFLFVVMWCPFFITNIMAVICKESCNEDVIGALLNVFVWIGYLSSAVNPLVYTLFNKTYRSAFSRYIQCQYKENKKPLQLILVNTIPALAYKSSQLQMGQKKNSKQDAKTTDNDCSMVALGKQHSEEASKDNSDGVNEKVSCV

human 5-HT2C receptor = biological target: T2, human 5-HT2C receptor (Homo sapiens, UniProt P28335); assay: R-SAT functional assay, constitutively active wild type 5-HT2C receptor; assay type: cell-based; conditions: for 5-HT2C Receptor Negative Log EC50 (inverse agonism): Table 3, 50 ng per well receptor DNA, assayed as agonists and inverse agonists; for EC50: read-out: 5-HT2C Receptor Negative Log EC50 (inverse agonism) (converted)
T2 construct: expressed in transfected cells; host or cells: not restated for 5-HT2C; R-SAT as for 5-HT2A (NIH 3T3)
T2 sequence (P28335 33-458): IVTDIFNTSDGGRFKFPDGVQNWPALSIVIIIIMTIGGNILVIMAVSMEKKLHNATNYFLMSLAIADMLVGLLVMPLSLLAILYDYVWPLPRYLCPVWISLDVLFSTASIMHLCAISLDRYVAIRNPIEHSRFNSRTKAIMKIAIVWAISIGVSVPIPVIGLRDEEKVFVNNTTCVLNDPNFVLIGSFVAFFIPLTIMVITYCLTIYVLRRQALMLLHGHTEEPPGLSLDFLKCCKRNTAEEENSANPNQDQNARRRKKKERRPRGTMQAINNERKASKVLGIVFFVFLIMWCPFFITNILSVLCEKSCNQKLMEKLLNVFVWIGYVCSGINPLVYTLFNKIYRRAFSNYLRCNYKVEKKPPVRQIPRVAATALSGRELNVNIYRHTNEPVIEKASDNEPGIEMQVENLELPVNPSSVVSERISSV

[1] = Table 3, 50 ng/well receptor DNA
[2] = Table 3, 50 ng/well receptor DNA, read-out: 5-HT2A Receptor Negative Log EC50 (inverse agonism) (converted)
[3] = compounds screened at 300-500 nM, 50 ng/well receptor DNA, […], mean of duplicates
[4] = read-out: Negative LOG EC50 (inverse agonism, inhibition of constitutive activity) (converted)
[5] = compounds screened at 300-500 nM, 50 ng/well receptor DNA, inhibition from basal, referenced to ritanserin (90-100%), mean of duplicates

SMILES: CCN(CC)CCCN1c2ccccc2Sc2ccc(Cl)cc21 [Chlorproethizene]
5-HT2A Receptor Negative Log EC50 (inverse agonism) (5-HT2A receptor; [1]): 7.70 +/− 0.33
5-HT2C Receptor Negative Log EC50 (inverse agonism) (human 5-HT2C receptor): <5.0

SMILES: CN1CCN(C2=Nc3ccccc3Cc3ccccc32)CC1 [Perlapine]
EC50 (5-HT2A receptor; [2]): 30.2 nM
EC50 (human 5-HT2C receptor): 1290 nM

SMILES: OCCN1CCN(CC/C=C2/c3ccccc3Sc3ccc(C(F)(F)F)cc32)CC1 [CIS-FLUPENTIXOL]
Negative LOG EC50 (inverse agonism, inhibition of constitutive activity) (5-HT2A receptor): 8.04 +/− 0.10
5-HT2A Receptor Negative Log EC50 (inverse agonism) (5-HT2A receptor; [1]): 8.04 +/− 0.10
% INHIBITION (screen for inverse agonism at 5-HT2A receptors) (5-HT2A receptor; [3]): 45%
5-HT2C Receptor Negative Log EC50 (inverse agonism) (human 5-HT2C receptor): No Intrinsic

SMILES: CN(C)CCCN1c2ccccc2Sc2ccccc21 [Promazine]
5-HT2C Receptor Negative Log EC50 (inverse agonism) (human 5-HT2C receptor): Agonist

SMILES: CN1CCN(C2Cc3ccccc3Sc3ccc(Cl)cc32)CC1.O=C(O)/C=C\C(=O)O (centres unmarked) [OCTOCLOTHEPIN]
5-HT2A Receptor Negative Log EC50 (inverse agonism) (5-HT2A receptor; [1]): 9.74 +/− 0.98
% INHIBITION (screen for inverse agonism at 5-HT2A receptors) (5-HT2A receptor; [3]): 76%

SMILES: O=C1CC2(CCCC2)CC(=O)N1CCCCN1CCN(c2nsc3ccccc23)CC1 [Tiospirone]
EC50 (5-HT2A receptor; [2]): 1.82 nM
EC50 (human 5-HT2C receptor): 513 nM

SMILES: CN1CCN(C2=Nc3ccccc3Oc3ccc(Cl)cc32)CC1 [LOXAPINE]
EC50 (human 5-HT2C receptor): 501 nM

SMILES: CCN1CCCC1CNC(=O)c1cc(S(N)(=O)=O)ccc1OC (centres unmarked) [Sulpiride]
5-HT2C Receptor Negative Log EC50 (inverse agonism) (human 5-HT2C receptor): No Intrinsic

SMILES: O=C(CCCN1CCC(O)(c2cccc(C(F)(F)F)c2)CC1)c1ccc(F)cc1 [TRIFLUPERIDOL]
EC50 (5-HT2A receptor; [2]): 25.7 nM
EC50 (5-HT2A receptor; [4]): 25.7 nM
EC50 (human 5-HT2C receptor): > 10000 nM

SMILES: OCCN1CCN(CC/C=C2\c3ccccc3Sc3ccc(C(F)(F)F)cc32)CC1 [Trans-Flupentixol]
Negative LOG EC50 (inverse agonism, inhibition of constitutive activity) (5-HT2A receptor): 6.77 +/− 0.21
5-HT2A Receptor Negative Log EC50 (inverse agonism) (5-HT2A receptor; [1]): 6.77 +/− 0.21
5-HT2C Receptor Negative Log EC50 (inverse agonism) (human 5-HT2C receptor): 5.55 +/− 0.37

SMILES: CN1CCCCC1CCN1c2ccccc2Sc2ccc([S+](C)[O-])cc21 (centres unmarked) [Mesioridazine]
5-HT2A Receptor Negative Log EC50 (inverse agonism) (5-HT2A receptor; [1]): 7.00 +/− 0.30
5-HT2C Receptor Negative Log EC50 (inverse agonism) (human 5-HT2C receptor): No Intrinsic

SMILES: CSc1ccc2c(c1)C(N1CCN(C)CC1)Cc1ccccc1S2 (centres unmarked) [METHIOTHEPIN]
% INHIBITION (screen for inverse agonism at 5-HT2A receptors) (5-HT2A receptor): 79%

SMILES: CN1CCN(C2=Nc3ccccc3Sc3ccc(Cl)cc32)CC1 [Clothiapine]
EC50 (5-HT2A receptor; [2]): 2.82 nM
EC50 (human 5-HT2C receptor): 479 nM

SMILES: CN(C)CCCN1c2ccccc2Sc2cccnc21 [Prothypendyl]
5-HT2A Receptor Negative Log EC50 (inverse agonism) (5-HT2A receptor; [1]): 6.60 +/− 0.44
5-HT2C Receptor Negative Log EC50 (inverse agonism) (human 5-HT2C receptor): Agonist

SMILES: N[C@@H](Cc1c[nH]c2ccc(O)cc12)C(=O)O [5-hydroxy-Ltryptophan]
% INHIBITION (screen for inverse agonism at 5-HT2A receptors) (5-HT2A receptor; [5]): 53%

Further lines, results first:

EC50 (5-HT2A receptor; [2]): 15.8 nM
5-HT2C Receptor Negative Log EC50 (inverse agonism) (human 5-HT2C receptor): No Intrinsic
SMILES: CCNC(=O)N1CCN(CCCC(c2ccc(F)cc2)c2ccc(F)cc2)CC1 [Amperozide]

5-HT2C Receptor Negative Log EC50 (inverse agonism) (human 5-HT2C receptor): No Intrinsic
SMILES: O=C(CCCN1CCC(O)(c2ccc(Br)cc2)CC1)c1ccc(F)cc1 [Bromperidol]

5-HT2C Receptor Negative Log EC50 (inverse agonism) (human 5-HT2C receptor): No Intrinsic
SMILES: CC1CCN(CCCC(=O)c2ccc(F)cc2)CC1 [Melperone]

Functional character at 5-HT2A receptor (inhibits signaling below baseline) (5-HT2A receptor; PSI vector expression, in words): inverse agonist
SMILES: Cc1nc2sccn2c(=O)c1CCN1CCC(=C(c2ccc(F)cc2)c2ccc(F)cc2)CC1 [RITANSERIN]

EC50 (5-HT2A receptor; [2]): 0.955 nM
EC50 (5-HT2A receptor; [4]): 0.955 nM
EC50 (human 5-HT2C receptor): 5.25 nM
SMILES: OCCN1CCN([C@@H]2C[C@@H](c3ccc(F)cc3)c3ccc(C(F)(F)F)cc32)CC1 (racemic) [Tefludazine]

5-HT2C Receptor Negative Log EC50 (inverse agonism) (human 5-HT2C receptor): No Intrinsic
SMILES: O=C(CCCN1CCC2(CC1)C(=O)NCN2c1ccccc1)c1ccc(F)cc1 [SPIPERONE]

5-HT2C Receptor Negative Log EC50 (inverse agonism) (human 5-HT2C receptor): No Intrinsic
SMILES: CN1CCN(CC/C=C2/c3ccccc3Sc3ccc(S(=O)(=O)N(C)C)cc32)CC1 [Thiothixene]

% INHIBITION (screen for inverse agonism at 5-HT2A receptors) (5-HT2A receptor; [5]): 92%
SMILES: Cc1nc2ccccn2c(=O)c1CCN1CCC(C(=O)c2ccc(F)cc2)CC1 [PIRENPIRONE]

5-HT2C Receptor Negative Log EC50 (inverse agonism) (human 5-HT2C receptor): No Intrinsic
SMILES: Cc1ccc(C2(O)CCN(CCCC(=O)c3ccc(F)cc3)CC2)cc1 [Moperone]
